Assay [1] has as its system panel of 71 protein kinases. The assay is described as follows: Caliper mobility shift enzymatic kinase selectivity screening. The format is biochemical. Particulars: tested 0.1 nM to 10 μM; ATP at KM. The procedure:
Enzymatic kinase selectivity screening was carried out using the Caliper mobility shift assay which is based on the difference in capillary electrophoresis mobility of a fluorescent tagged peptide as a result of the addition of a phosphate moiety by the studied kinase. The kinase reactions were started by addition of 4.5 μl substrate mix consisting of ATP and peptide substrate in assay buffer (50 mM HEPES [pH 7.5], 0.02% bovine serum albumin, 1 mM DTT, 0.02% Tween 20, 0.01 mM Na3VO4, 10 mM beta-glycerophosphate) and 4.5 μl enzyme solution in assay buffer. The peptide concentration was 2 μM. Concentrations for the enzyme, as well as for MgCl2 and MnCl2 were adjusted specifically to the requirements of the individual enzyme. ATP concentrations were adjusted to the KM values of the specific enzyme. After incubation for 60 min at 30°C the kinase reactions were stopped by addition of 16 μl stop solution (100 mM HEPES [pH 7.5], 5% DMSO, 0.1% coating reagent [Caliper Lifescience] 10 mM EDTA [pH 8.0], 0.015% BRIJ35). Stopped kinase reactions were analyzed in a LC3000 reader (Caliper Lifescience). Compounds were tested from 0.1 nM to 10 μM in eight steps.

Assay [2] relates to phosphorylated SR proteins in HMEC-1 cells. As to the kind of experiment: SR protein phosphorylation, western blotting. Type of assay: cell-based, human. To be noted: TNF-α-stimulated HMEC-1, increasing inhibitor concentration. As for the experimental part: Western blot analysis of samples from cell lysates of inhibited, stimulated, and unstimulated HMEC-1 cells were performed as previously described ([Szotowski et al., 2005]). For detection of phosphorylated SR proteins, monoclonal antibody mAb1H4 (Invitrogen GmbH, Karlsruhe, Germany) was used.
(Immunoblotting shows a protein as a band on a membrane.)

For a further assay, the target named is CDK2 (Homo sapiens, UniProt P24941). The assay is described as follows: Thermal stability shift assay. The format is binding. Particulars: read-out: Tm shift CDK2. As for the experimental part:
(§1) Thermal denaturation experiments were carried out in an Mx3005p real-time PCR machine (Agilent) using a protein concentration of 2 μM and an inhibitor concentration of 10 μM. Samples were buffered in 10 mM HEPES (pH 7.5), 500 mM NaCl and a 1:1000 dilution of SyproOrange (Invitrogen).

The target of the next assay is CK1g3 (Homo sapiens, UniProt Q9Y6M4). As to the kind of experiment: Thermal stability shift assay. The format is binding. To be noted: read-out: Tm shift CK1g3. The procedure: as §1
CK1g3, sequence (Q9Y6M4 whole entry, canonical isoform): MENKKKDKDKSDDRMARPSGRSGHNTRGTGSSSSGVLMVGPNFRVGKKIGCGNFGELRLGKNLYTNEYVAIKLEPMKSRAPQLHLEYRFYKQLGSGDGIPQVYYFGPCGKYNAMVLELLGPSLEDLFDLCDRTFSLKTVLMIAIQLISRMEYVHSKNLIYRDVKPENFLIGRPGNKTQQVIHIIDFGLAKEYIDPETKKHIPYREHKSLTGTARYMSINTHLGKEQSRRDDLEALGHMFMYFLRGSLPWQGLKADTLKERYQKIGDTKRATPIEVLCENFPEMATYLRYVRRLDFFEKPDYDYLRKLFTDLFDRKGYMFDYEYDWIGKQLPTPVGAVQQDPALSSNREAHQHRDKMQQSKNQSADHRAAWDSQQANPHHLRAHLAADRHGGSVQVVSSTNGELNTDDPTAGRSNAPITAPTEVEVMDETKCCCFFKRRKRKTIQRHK
For assay [3], the system named is flTF and asHTF mRNA in HMEC-1 cells. The assay is described as follows: TF isoform mRNA expression (RT-PCR).
Description: For inhibition experiments, HMEC-1 endothelial cells were switched to EC basal medium (without fetal calf serum) for 1 hr. […] Analysis of the TF isoform mRNA expression was done 1 hr post stimulation with TNF-α and assessment of the phosphorylation state of SR proteins by western blotting was performed 2 min post induction of the cells. Positive controls were stimulated only with TNF-α, and negative controls were untreated.
Assay [4] relates to panel of 106 kinases / 129 human protein kinases. As to the kind of experiment: Thermal shift assay, kinase panel. The format is binding. Particulars: inhibitor 10 μM. As for the experimental part: Thermal denaturation experiments were carried out in an Mx3005p real-time PCR machine (Agilent) using a protein concentration of 2 μM and an inhibitor concentration of 10 μM. Samples were buffered in 10 mM HEPES (pH 7.5), 500 mM NaCl and a 1:1000 dilution of SyproOrange (Invitrogen). The assay and data evaluation were carried out as described ([Bullock et al., 2005])

This note sets out measurements from article PMC3145970, “Specific CLK Inhibitors from a Novel Chemotype for Regulation of Alternative Splicing” (Chemistry & Biology, 2011).

Read-outs that look alike come from different tables or passages of the source.

Turning to `CCOC(=O)c1c(/C(C#N)=C\N)c2ccc(Cl)c(Cl)c2n1C` [KH-CB19, (E)-Ethyl 3-(2-Amino-1-Cyanovinyl)-6,7-Dichloro-1-Methyl-1H-Indole-2-Carboxylate], the “Inhibition of panel of 71 protein kinases” value in assay [1] was “No additional kinases from the panel were inhibited”. Moreover, the “Dose response of SRp75 and SRp55 phosphorylation” value in assay [2] is listed as “significantly reduced at increasing concentration of the inhibitor”. In addition, the figures for the ΔTm at 10 µM on CDK2 and at CK1g3 were 0.2 °C and 0.1 °C, respectively. For the same compound, the “TNF-α-induced mRNA expression of flTF and asHTF” value in assay [3] (HMEC-1, 10 μM inhibitor, 10 ng/ml TNF-α, 1 hr post stimulation) is “lowered TNF-α-induced expression of both TF mRNA splice variants to baseline”. Also, the “Basal mRNA expression of flTF and asHTF” value in assay [3] (resting HMEC-1, 10 μM inhibitor) is reported as “significantly reduced the basal expression of flTF as well as asHTF”.
In the case of `NC1=NC(=O)/C(=C2\CCNC(=O)c3[nH]c(Br)cc32)N1` [Hymenialdisine, hymenialdisine, reference compound], the ΔTm at 10 µM at CDK2 (inhibitor 10 μM) is 1.5 °C; at CK1g3 (inhibitor 10 μM) it was 3.5 °C.
Turning to `CCOC(=O)c1c(C(C#N)=CN(C)C)c2ccc(Cl)c(Cl)c2n1C` (mixture of isomers) [compound 2, (E/Z)-Ethyl 6,7-Dichloro-3-[1-Cyano-2-(Dimethylamino)Vinyl]-1-Methyl-1H-Indole-2-Carboxylate], the “Interaction in thermal shift screen, panel of 106 kinases” value in assay [4] is reported as “showed only interaction with CLK family members”. In addition, the ΔTm at 10 µM on CDK2 (inhibitor 10 μM) is -0.1 °C; at CK1g3 (inhibitor 10 μM) it was 0.5 °C.
On to `CCOC(=O)c1c(C(C#N)=CN)c2ccc(Cl)c(Cl)c2n1C` (mixture of isomers) [KH-CB20, (E/Z)-Ethyl 3-(2-Amino-1-Cyanovinyl)-6,7-Dichloro-1-Methyl-1H-Indole-2-Carboxylate], for which the ΔTm at 10 µM was found to be 0.2 °C on CDK2 and 0.3 °C on CK1g3.
As for `Cn1c2c(Cl)c(Cl)ccc2c2c(C#N)c[nH]c(=O)c21` [compound 3, 7,8-Dichloro-9-Methyl-1-Oxo-2,9-Dihydro-1H-Pyrido[3,4-b]Indole-4-Carbonitrile], the “Interaction in thermal shift screen, panel of 106 kinases” value in assay [4] was “showed only interaction with CLK family members”. Also, the ΔTm at 10 µM on CDK2 (inhibitor 10 μM) is 0.4 °C; on CK1g3 (inhibitor 10 μM) it was 0 °C.
